Test results published in patent US20120263754A1, “Methods for Enhancing Immunogen Specific Immune Responses by Vectored Vaccines” (priority 2011, published 2012).

Test system: CD8 T cell response to the epitope AH1A5
Experiment: Adjuvant mixed with DC-NILV encoding AH1A5 and administered together subcutaneously; ICS/FACS
Assay type: in vivo, BALB/c mice
Settings: adjuvant mixed with DC-NILV AH1A5 1 μg p24, s.c.; 4 or 20 μg GLA, 4 μg LPS; spleen cells day 10
Description: FIG. 2 illustrates the effect of two adjuvants, GLA and lipopolysaccharide (LPS), on the immune response to the CD8 T cell epitope AH1A5. The lentiviral vector encoding AH1A5 (SinVarl FUW AH1A5 (1 μg p24)) was mixed with PBS (control group), 4 μg GLA, 20 μg GLA, or 4 μg LPS and then administered subcutaneously (s.c.) to groups of BALB/C mice. After 10 days, spleen cells were isolated from animals in each group, and the CD8 T cell response was evaluated by determining the level of TNF-α and IFN-γ by intracellular cytokine staining (ICS) followed by fluorescence activated cell sorting (FACS). The values shown are the mean percentage ±SEM of CD8 T cells that are positive for IFN-γ. Data are also shown from spleen cells obtained from mice that were not injected with the lentiviral vector (no LV).
The effect of two adjuvants, GLA and lipopolysaccharide (LPS), on the immune response to the CD8 T cell epitope AH1A5 was determined. DC-NILV encoding AH1A5 (1 μg p24) was mixed with PBS (control group), 4 μg GLA, 20 μg GLA, or 4 μg lipopolysaccaride (LPS) and then administered subcutaneously (s.c.) to groups of BALB/c mice. After 10 days, spleen cells were isolated from animals in each group, and the CD8 T cell response was evaluated by determining the level of TNF-α and IFN-γ by intracellular cytokine staining (ICS) followed by fluorescence activated cell sorting (FACS). […]

lipopolysaccharide [LPS] was tested, and the “effect of coadministered adjuvant on vaccine-induced immune responses (CD8 T cells, TNF-α and IFN-γ)” value was “inhibitory effect”.
